{"source": "paper PMC7076382", "about": "(Pharmaceutics, 2020)", "key": {"rat intestine": {"tested_on": "rat intestine", "details": "cited from earlier work; for effect on permeation of small model drugs: caprate at 2 and 5 mg/mL"}, "jejunal segment [1]": {"tested_on": "jejunal segment", "assay": "Blood-to-lumen jejunal 51Cr-EDTA clearance (CLCr-EDTA) during SPIP", "experimental": "(§1) At the SPIP experiment, the abdomen was opened along the midline and a jejunal segment of 10–15 cm was cannulated, covered with polyethylene wrap, and placed outside the abdomen. The bile duct was cannulated to avoid pancreaticobiliary secretion into the duodenum. […] During the first 30 min following surgery, each intestinal segment was single-passed perfused with 37 °C phosphate buffered saline (6 mM, pH 6.5 or 7.4). […] The length of the intestinal segment was measured after the jejunal cannulation as was the wet tissue weight of the segment after the experiment. The perfusion rate was at all times 0.2 mL/min (peristaltic pump, Gilson Minipuls 3, Le Bel, France).\nLuminal perfusates and blood plasma at 0 and 135 min were analyzed for ^51Cr activity (cpm) in a gamma counter (1282 Compugamma CS, Pharmacia AB, Uppsala, Sweden). A linear regression analysis of the plasma samples was made to obtain a corresponding plasma value for each perfusate sample. […] CLCr-EDTA was determined during the last 45 min for the control solution and during the last 60 min for the test solutions (the first 15 min in each period was for equilibration). […]\n(§2) Peff and CLCr-EDTA values, are expressed as the mean ± standard deviation (SD) or standard error of the mean (SEM). […]"}, "jejunal segment [2]": {"tested_on": "jejunal segment", "assay": "Single-pass intestinal perfusion (SPIP), jejunal lumen-to-blood effective permeability (Peff)", "details": "any investigated luminal concentration: SDS 5 mg/mL; caprate 5, 10, 20 mg/mL", "experimental": "(§3) In short, male Wistar Han rats (strain 273) from Charles River Co. (Cologne, Germany), weight 270–363 g, were used. On the study day, the rats were anesthetized using an intraperitoneal injection of a 5% w/v thiobutabarbital solution (180 mg/kg). Body temperature was maintained at 37.5 ± 0.5 °C. To validate the condition of the animal, the systemic arterial blood pressure was continuously recorded by connecting the arterial catheter to a transducer operating a PowerLab system (AD Instruments, Hastings, UK).\nas §1\n(§4) Each perfusate experiment was divided into two parts. […] The 10 and 20 mg/mL concentrations (suspensions) were used to evaluate if concentrations above saturation had any impact on membrane permeability.\n(§5) The five experiments were designed such that each rat was its own control. The experimental period started with a rapid filling (<30 s) of the whole segment with the perfusate (about 1.5 mL for a 10 cm segment). The intestinal segment and perfusates were kept at 37 °C, and all outgoing perfusate was collected and weighed at 15-min intervals.\n(§6) In short, an input rate was acquired by deconvolution of the plasma concentration–time profiles following the intestinal perfusion. […] From the input rate, an absorption rate was then calculated by compensating for first-pass extraction (Ffirstpass) of each compound in the rat intestine and liver. […] Plasma CL values were derived from the two-compartment analysis of the intravenous plasma data and an assumed rat liver blood flow of 47 mL/min/kg [24]. The Peff (cm/s) was then calculated by relating the absorption rate to the intestinal luminal area using Equation (2):(2) Peff=absorption rate/A × C where A is the area of the exposed intestinal segment described as a smooth cylinder with a radius of 0.2 cm and C is the concentration entering the luminal segment. Peff was evaluated from 0 to 135 min, and the mean Peff value of the two perfusion periods (60-min control and 75-min test) was regarded as representative for each individual rat.\nas §2"}, "Caco-2 model": {"tested_on": "Caco-2 model", "set-up": "method as in PMID 11578108", "details": "cited from earlier work"}, "colonic": {"tested_on": "colonic", "details": "cited from earlier work"}, "intestinal lumen": {"tested_on": "intestinal lumen", "set-up": "method as in PMID 29758344", "details": "caprate dose of 11.4 mg/mL, formulation pH 6.5 and 7.4; cited from earlier work"}, "[3]": {"details": "rat, in vivo, iv", "experimental": "(§7) Blood samples of <0.3 mL were collected from the femoral artery for a maximum volume of 4 mL during each experiment. All sampled blood volumes were replaced by an equivalent volume of saline (0.9% NaCl) containing 70 mg/mL bovine serum albumin. For the intravenous administration, blood was sampled over 6 h (at 5, 10, 20, 40, 60, 90 min and at 2, 4, and 6 h). […] The blood samples were put on ice and centrifuged (5000× g, 3 min at 4 °C) within 10 min of sampling; 100 μL of the plasma was transferred to 0.5 mL micro tubes and stored at −80 °C until analysis.\n(§8) Plasma CL values were derived from the two-compartment analysis of the intravenous plasma data and an assumed rat liver blood flow of 47 mL/min/kg [24].\n(§9) The plate was vortex-mixed for 10 min (pulse 1200) after which it was centrifuged for 10 min at 2862× g. The supernatants were then injected into the UHPLC-MS/MS system. The column used was an Acquity UPLC Peptide BEH C18 (50 × 2.1 mm length × inner diameter, 1.7 µm particle size) from Waters Corp. (Milford, MA, USA). The mobile phase consisted of (A) 0.1% formic acid in water and (B) 0.1% formic acid in acetonitrile. Gradient elution was initially 2.0% B for 0.50 min, with a linear increase to 90% B for 1.5 min, held constant at 90% B for 0.30 min, then back to 2.0% B in 0.30 min, and constant again at 2.0% B for 0.40 min. The total run time was 3.0 min."}, "in vivo": {"assay": "in vivo", "details": "rat, iv", "experimental": "as §7, §8, §9"}, "[4]": {"details": "cited from earlier work; for Log D6.5: pH 6.5; for Log D7.4: pH 7.4"}, "[5]": {"assay": "Single-pass intestinal perfusion (SPIP), jejunal lumen-to-blood effective permeability (Peff)", "details": "male, Wistar Han, rat, other: single-pass jejunal perfusion", "experimental": "as §3, §1, §4, §5, §6, §2"}, "[6]": {"details": "rat, in vivo, iv", "remark": "listed apart in the source", "experimental": "as §7, §8, §9"}, "[7]": {"details": "rat", "experimental": "as §3, §1, §4, §5, §6, §2"}, "jejunal segment [8]": {"tested_on": "jejunal segment", "details": "rat", "experimental": "as §3, §1, §4, §5, §6, §2"}, "rat liver": {"tested_on": "rat liver", "details": "in vivo; cited from earlier work"}, "serine protease": {"tested_on": "serine protease", "set-up": "method as in PMID 9643439, PMID 11578108", "details": "rat, pefabloc SC at 0.3 mg/mL; cited from earlier work"}, "[9]": {"details": "dog, in vivo, po, 600 mg; cited from earlier work"}, "[10]": {"details": "n-octanol-water, source not given"}}, "note": "Like-named read-outs stand apart in the source and are kept apart here. Non-standard residues stand in square brackets, D forms with d. Residues, ends and D or L forms follow the SMILES beside them. dTrp(2-Me) = Cc1[nH]c2ccccc2c1C[C@@H](N)C(=O)O", "data": [{"compound": "CCCCCCCCCCCCOS(=O)(=O)[O-].[Na+]", "note": "[SDS, sodium dodecyl sulfate]", "values": [{"measurement": "pH dependence of the effect on the permeability of enalaprilat and CLCr-EDTA", "setting": "rat intestine; SDS at 5 mg/mL, pH 6.5 vs. 7.4", "result": "unaffected by pH"}, {"measurement": "increase of absorption of atenolol", "setting": "rat intestine; SDS at 5 mg/mL, rat SPIP", "result": 10, "unit": "fold"}, {"measurement": "increase of absorption of enalaprilat", "setting": "rat intestine; SDS at 5 mg/mL, rat SPIP", "result": 40, "unit": "fold"}, {"measurement": "increase of absorption of ketoprofen", "setting": "rat intestine; SDS at 5 mg/mL, rat SPIP", "result": "not at all"}, {"measurement": "effect on lumen-to-blood transport of four low permeation model compounds and on CLCr-EDTA", "setting": "rat intestine; SPIP model, acyclovir, atenolol, enalaprilat, phenol red", "result": "increase the lumen-to-blood transport"}, {"measurement": "effect on permeation of small model drugs", "setting": "rat intestine; rat SPIP, SDS at 5 mg/mL", "result": "increases permeation in both absorptive and secretory directions"}, {"measurement": "CLCr-EDTA ratio (test vs. control period)", "setting": "jejunal segment [1]; permeation enhancer at 5 mg/mL, pH 7.4, solution", "result": "significant increase"}, {"measurement": "effect on hexarelin absorption (Peff ratio of hexarelin)", "setting": "jejunal segment [2]", "result": "Neither SDS nor caprate at any of the investigated luminal concentrations enhanced absorption"}]}, {"compound": "O=C([O-])CN(CCN(CC(=O)[O-])CC(=O)[O-])CC(=O)[O-].[51Cr+3]", "note": "[^51Cr-EDTA, ^51Chromium-labeled ethylenediaminetetraacetate]", "values": [{"measurement": "CLCr-EDTA (blood-to-lumen clearance)", "setting": "jejunal segment [1]; control solution, mean ± SD, n = 24", "result": "0.092 ± 0.039", "unit": "mL/min/100 g"}]}, {"compound": "CCCCCCCCCC(=O)[O-].[Na+]", "note": "[caprate, sodium caprate]", "values": [{"measurement": "increase of apparent permeability of hexarelin", "setting": "Caco-2 model", "result": "over 200 fold"}, {"measurement": "effect of caprate when pH was increased from 6.5 to 7.4", "setting": "colonic; 4 mg/mL caprate, rectal perfusion study", "result": "increased"}, {"measurement": "human colonic Peff", "setting": "colonic", "result": "1.4 ± 0.4 × 10^−4 cm/s"}, {"measurement": "absorption-enhancing effect on small low permeability model compounds", "setting": "rat intestine; caprate at 2 mg/mL, rat jejunal SPIP", "result": "did not observe any absorption-enhancing effect"}, {"measurement": "effective caprate concentrations", "setting": "rat intestine; rat SPIP model", "result": "4 to 20", "unit": "mg/mL"}, {"measurement": "effect on permeation of small model drugs", "setting": "rat intestine; rat SPIP, SDS at 5 mg/mL", "result": "does not"}, {"measurement": "absorption-enhancing effect", "setting": "intestinal lumen", "result": "no effect"}]}, {"compound": "C[C@H](N[C@@H](CCc1ccccc1)C(=O)O)C(=O)N1CCC[C@H]1C(=O)O", "note": "[enalaprilat]", "values": [{"measurement": "C1 (intercept of first term)", "setting": "[3]", "result": "428.6 (449.1/408.0) nM"}, {"measurement": "C2 (intercept of second term)", "setting": "[3]", "result": "87.7 (105.5/70.0) nM"}, {"measurement": "λ1 (slope of first term)", "setting": "[3]", "result": "3.9 (4.6/3.3) h^−1"}, {"measurement": "λ2 (slope of second term)", "setting": "[3]", "result": "0.38 (0.45/0.31) h^−1"}, {"measurement": "basal permeability", "setting": "rat intestine; rat SPIP", "result": 1.1, "unit": "×10⁻⁶ cm/s"}, {"measurement": "clearance", "setting": "in vivo", "result": 3, "unit": "mL/min"}, {"measurement": "Log D6.5", "setting": "[4]; [10]", "result": "−1.0"}, {"measurement": "Log D7.4", "setting": "[4]; [10]", "result": "−1.0"}, {"measurement": "Papp at 100 µM", "setting": "[5]", "result": "1.3 ± 0.9", "unit": "×10⁻⁶ cm/s"}]}, {"compound": "Cc1[nH]c2ccccc2c1C[C@@H](NC(=O)[C@@H](N)Cc1cnc[nH]1)C(=O)N[C@@H](C)C(=O)N[C@@H](Cc1c[nH]c2ccccc12)C(=O)N[C@H](Cc1ccccc1)C(=O)N[C@@H](CCCCN)C(N)=O", "note": "[hexarelin] (H-H[dTrp(2-Me)]AW[dF]K-NH2)", "values": [{"measurement": "clearance", "setting": "[6]", "result": 10.3, "unit": "mL/min"}, {"measurement": "Papp", "setting": "[7]", "result": "0.19 ± 0.14", "unit": "×10⁻⁶ cm/s"}, {"measurement": "C1 (intercept of first term)", "setting": "[3]", "result": "355.2 (416.9/293.5) nM"}, {"measurement": "C2 (intercept of second term)", "setting": "[3]", "result": "133.7 (149.1/118.3) nM"}, {"measurement": "λ1 (slope of first term)", "setting": "[3]", "result": "13.7 (17.5/10.0) h^−1"}, {"measurement": "λ2 (slope of second term)", "setting": "[3]", "result": "2.08 (2.26/1.91) h^−1"}, {"measurement": "permeability at pH 6.5 compared to pH 7.4", "setting": "jejunal segment [8]", "result": "lower at pH 6.5 compared to pH 7.4"}, {"measurement": "Log D6.5", "setting": "[4]", "result": "−3.40"}, {"measurement": "Log D7.4", "setting": "[4]", "result": "−2.26"}, {"measurement": "Ffirstpass (first-pass extraction)", "setting": "rat liver", "result": 0.63}]}, {"compound": "CC(C(=O)O)c1cccc(C(=O)c2ccccc2)c1", "note": "(centres unmarked) [ketoprofen]", "values": [{"measurement": "basal permeability", "setting": "rat intestine; rat SPIP", "result": 160, "unit": "×10⁻⁶ cm/s"}]}, {"compound": "Cl.NCCc1ccc(S(=O)(=O)F)cc1", "note": "[pefabloc SC]", "values": [{"measurement": "inhibition of intestinal degradation of hexarelin", "setting": "serine protease", "result": "completely inhibits"}]}, {"compound": "semaglutide", "values": [{"measurement": "bioavailability", "setting": "[9]", "result": 0.29, "unit": "%"}]}]}
